Test results taken from patent US8853263B2, “Co-therapy for the treatment of epilepsy and related disorders” (Janssen Pharmaceutica NV, priority 2006, dated 2014).

melting point	Compound
76 to 78 °C	CN(C)S(=O)(=O)NCC1COc2ccccc2O1 (racemic) [Compound #6, N-(2,3-Dihydro-benzo[1,4]dioxin-2-ylmethyl)-N′,N′dimethylsulfamide]
100 to 101 °C	NS(=O)(=O)NCC1CCc2ccccc2O1 (stereo not shown) [Compound #10, Chroman-2-ylmethylsulfamide]
101 to 103 °C	NS(=O)(=O)NCCC1COc2ccccc2O1 (stereo not shown) [Compound #16, 2-(2,3-Dihydro-benzo[1,4]dioxin-2-yl)-ethylsulfamide]
119 to 121 °C	NS(=O)(=O)NC[C@H]1COc2cc(Cl)c(Cl)cc2O1 [Compound #29, (2S)-(−)-N-(6,7Dichloro-2,3-dihydro-benzo[1,4]dioxin-2-ylmethyl)-sulfamide]
